Measurements published in PMC4409337, “Immucillins Impair Leishmania (L.) infantum chagasi and Leishmania (L.) amazonensis Multiplication In Vitro” (PLoS ONE, 2015).

Columns and labels:
[1] = test system: L. (L.) infantum chagasi promastigotes; assay: In vitro growth of promastigotes in FBS supplemented Schneider's insect medium; assay type: cell-based, Leishmania (L.) infantum chagasi; conditions: Leishmania infantum
Description: The strain of Leishmania (L.) infantum chagasi MHOM/BR/1974/PP75 was obtained from the Leishmania Type Culture Collection (Fundacão Oswaldo Cruz, Rio de Janeiro, RJ, Brazil) and the strain of Leishmania (L.) amazonensis (MHOM/BR/1975/Josefa) was kindly given by Professor Rosâ[…] from Universidade Federal do Rio de Janeiro. Promastigotes were maintained by weekly transfers in screw-capped glass tubes containing Schneider's insect medium (Sigma Aldrich, MO, USA), pH 7.0, supplemented with 10% Fetal Bovine Serum (FBS) at 26°C. […] Log phase promastigotes of L. (L.) infantum chagasi and L. […] Promastigotes were recorded in a Neubauer chamber after 24, 48, 72 and 96 hours of incubation at 26°C. […] The concentration of adenosine in Schneider s insect serum supplemented medium was assessed by HPLC using a C-18 reverse-phase column as described.

[2] = test system: L. (L.) amazonensis promastigotes; assay: as above; assay type: cell-based, Leishmania (L.) amazonensis; conditions: Leishmania amazonensis
Description: The strain of Leishmania (L.) infantum chagasi MHOM/BR/1974/PP75 was obtained from the Leishmania Type Culture Collection (Fundacão Oswaldo Cruz, Rio de Janeiro, RJ, Brazil) and the strain of Leishmania (L.) amazonensis (MHOM/BR/1975/Josefa) was kindly given by Professor Rosâ[…] from Universidade Federal do Rio de Janeiro. Promastigotes were maintained by weekly transfers in screw-capped glass tubes containing Schneider's insect medium (Sigma Aldrich, MO, USA), pH 7.0, supplemented with 10% Fetal Bovine Serum (FBS) at 26°C. Stock solutions (20 mM) of immucillins IA […] prepared using Milli-Q purified water. Log phase promastigotes of L. (L.) infantum chagasi and L. […] Promastigotes were recorded in a Neubauer chamber after 24, 48, 72 and 96 hours of incubation at 26°C. […] We also assayed the possibility of reversing the inhibitory effect of IA in RPMI medium by the addition of adenosine to the culture medium. The concentration of adenosine in Schneider s insect serum supplemented medium was assessed by HPLC using a C-18 reverse-phase column as described.

[3] = test system: L. (L.) infantum chagasi promastigotes; assay: Transmission electron microscopy of treated promastigotes; assay type: cell-based, Leishmania (L.) infantum chagasi; conditions: 10 μM, 72 h
Description: The cells were washed with Milli Q water, dehydrated in increasing concentration of acetone and embedded in Epon (1: 1) (PolyBed 812). The ultrathin sections were obtained, contrasted with 5% uranyl acetate and lead citrate and observed under a Joel 1200 electron microscope.

[4] = test system: L. (L.) infantum chagasi promastigotes; assay: Promastigote multiplication in chemically defined RPMI medium; assay type: cell-based, Leishmania (L.) infantum chagasi
Procedure: Stock solutions (20 mM) of immucillins IA […] prepared using Milli-Q purified water. Log phase promastigotes of L. (L.) infantum chagasi and L. […] Promastigotes were recorded in a Neubauer chamber after 24, 48, 72 and 96 hours of incubation at 26°C. […] We also assayed the possibility of reversing the inhibitory effect of IA in RPMI medium by the addition of adenosine to the culture medium. The concentration of adenosine in Schneider s insect serum supplemented medium was assessed by HPLC using a C-18 reverse-phase column as described.

[5] = target: T1, Nucleoside hydrolase NH36 (Leishmania donovani, UniProt Q8WQX2); assay: Ki determination: inhibition of NH36 activity by immucillins; assay type: biochemical, Leishmania (L.) donovani; conditions: 10 mM inosine as substrate, 0.5 nM NH36, pH 7.4, room temperature
T1 sequence (Q8WQX2 1-314): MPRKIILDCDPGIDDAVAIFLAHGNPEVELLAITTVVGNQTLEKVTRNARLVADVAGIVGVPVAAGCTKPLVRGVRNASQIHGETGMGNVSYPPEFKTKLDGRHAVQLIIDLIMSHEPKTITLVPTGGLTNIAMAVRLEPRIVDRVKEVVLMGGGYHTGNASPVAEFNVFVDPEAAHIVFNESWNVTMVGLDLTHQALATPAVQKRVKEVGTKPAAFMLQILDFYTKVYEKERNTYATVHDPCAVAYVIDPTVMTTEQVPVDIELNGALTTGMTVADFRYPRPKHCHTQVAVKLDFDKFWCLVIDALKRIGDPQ
Procedure: BL21DE3 E.coli were transformed with the synthetic plasmid pET 28b encoding the gene of NH36 of Leishmania (L.) donovani (EMBL, Genbank and DDJB data bases, access number AY007193) with a His6tag at the C-terminal. Expression was induced with 0.5 mM IPTG and overnight incubation at 20°C. Purification of NH36 was performed on a column of Ni-NTA Superflow resin (Qiagen, USA) eluted by a stepwise imidazole gradient and monitored by SDS-polyacrylamide gel electrophoresis and protein assay. The extinction coefficient of NH36 is 21.437 mM^-1 cm^-1 at 280 nm, as calculated with the ProtParam program from ExPASy, and was used to estimate protein concentration (http://ca.expasy.org/seqanalref/). The yield of NH36 after purification was 11.87 mg per Liter of bacterial growth culture. Non-specific His-proteins with weak interactions were eluted with 50–100 mM imidazole (S1 Fig). The purified NH36 started to elute with 150 mM imidazole. We used 250 mM of imidazol in elution buffer for purification of NH36.
The reaction mixtures contained 10 mM inosine as substrate, 50 mM Hepes (pH 7.4), 100 mM KCl, 5 mM DTT and 1 unit XOD. The hydrolysis of inosine to hypoxanthine and ribose was followed by continuous reading of optical absorbance at 293 nm, using variable concentrations of inhibitors in a CARY 300UV-visible spectrophotometer. Controls without enzyme and without inhibitors were included in all inhibition assays. The inhibition constant for each immucillin was obtained, using GraFit 5 (Erithacus Software), by fitting initial rates with variable inhibitor concentrations to the equation (vi/v0 = [S] / Km + [S] + Km[I] / Ki), where v i is the initial rate in the presence of the inhibitor, v 0 is the initial rate in the absence of the inhibitor, K m is the Michaelis constant for inosine, [S] and [I] are inosine and inhibitor concentrations, respectively, and Ki is the inhibition constant.

IC50 ([4]; Leishmania infantum, RPMI medium lacking nucleosides or nucleobases, 72 h): 75 µM
Ki [5]: 80 nM
SMILES: Nc1ncnc2c(C3N[C@H](CO)[C@@H](O)[C@H]3O)c[nH]c12 (stereo partly drawn) [IA]
IC50 ([1]; drugs added at 0, 24 and 48 h, after 48h, read-out: IC50 on promastigote growth, daily addition): 3.6 µM
IC50 ([1]; drugs added at 0, 24 and 48 h, at 72 and 96 h, read-out: IC50 on promastigote growth, daily addition): < 0.05 µM
IC50 ([1]; single addition at 0 h, evaluated after 48 hours, 26°C, read-out: IC50 (CI 95%) on L. (L.) infantum chagasi promastigotes in vitro growth): 23.9 µM
inhibition at 500 µM ([1]; 500 μM, after 96 h of culture, read-out: percent inhibition on L. (L.) infantum chagasi promastigote growth): 78%
inhibition at 500 µM ([2]; 500 μM, after 96 h of culture, read-out: percent inhibition on L. (L.) amazonensis replication): 76%
IC50 ([2]; single addition at 0 h, evaluated after 48 hours, 26°C, read-out: IC50 (CI 95%) on L. (L.) amazonensis promastigotes in vitro growth): 48.7 µM
effect on cellular ultrastructure of promastigotes [3]: global alterations on their cellular morphology
inhibition at 10 µM ([4]; Leishmania infantum, 10 μM, 72 h, compared to RPMI with no addition): 38%
inhibition at 50 µM ([4]; Leishmania infantum, 50 μM, 72 h, compared to RPMI with no addition): 46%
reversal of growth inhibition by adenosine ([4]; RPMI with 50 μM IA and 50-500 μM adenosine, 72h): can be reversed by the presence of exogenous adenosine
